Source: patent US8835476B2, “Synthesis of novel antimicrobials” (priority 2005, dated 2014)
≈ marks a conversion by molar mass, not a printed value. Read-outs that look alike come from different tables or passages of the source.

Key:
Type in all cases: cell-based
P. rettgeri CAP = test: Broth microdilution MIC, reference strains; conditions: Providencia rettgeri, read-out: MIC (growth inhibition, microdilution method)
Excerpt: (§1) All clinical isolates tested were from The North American Urinary Tract Infection Collaborative Alliance (NAUTICA) which is a UTI surveillance study involving 40 medical centres (30 from the US and 10 from Canada). Each centre submitted up to 50 consecutive outpatient midstream urine isolates. All isolates were deemed significant urinary tract pathogens by individual laboratory criteria and identified to the species level by each laboratory's existing protocol. Isolates were transported to the coordinating laboratory (Health Sciences Centre, Winnipeg, Canada) on charcoal swabs. Only one isolate per patient was accepted. Upon receipt, isolates were cultured by the coordinating laboratory, stocked in skim milk, and stored at −80° C. awaiting reference antibiotic susceptibility testing. Elementary demographic information was also compiled for each isolate. Isolates were selected randomly from the above pool to represent 18 different species of Enterobacteriaceae and non-Enterobacteriaceae. An average of 5 strains of each species were tested for a total of 93 organisms. In addition, 23 reference (ATCC) [both gram negative and gram positive] strains were tested.
(§2) Susceptibilities to the compounds were determined using the National Committee for Clinical Laboratory Standards (NCCLS) M7-A6 broth microdilution method. […] DMSO controls were incorporated into the panel to mimic the quantity of DMSO used in dissolving some of the compounds at the higher concentrations. Each final panel well volume was 100 μl with a bacterial inoculum of 5×10^5 colony forming units (CFU)/ml. Panels were read following 16 to 20 hours of incubation at 35° C. in ambient air. The minimum inhibitory concentration (MIC) was defined as the lowest concentration of antimicrobial inhibiting visible growth. Quality control (QC) was performed using four ATCC QC organisms that were run with every batch set up to insure reproducibility.

S. marcescens ATCC 8100 = test: Broth microdilution MIC, ATCC strains; conditions: Serratia marcescens
Excerpt: as §1, §2

K. oxytoca ATCC 49131 = test: Broth microdilution MIC, ATCC strains; conditions: Klebsiella oxytoca
Excerpt: as §1, §2

[1] = tested on: S. maltophilia ATCC 13637; test: Broth microdilution MIC, ATCC strains; conditions: Stenotrophomonas maltophilia, ATCC13637; S. maltophilia ATCC 13637; read-out: MIC (growth inhibition, microdilution method)
Excerpt: as §1, §2

E. faecium ATCC 35667 = test: Broth microdilution MIC, ATCC strains; conditions: Enterococcus faecium, ATCC35667, read-out: MIC (growth inhibition, microdilution method)
Excerpt: as §1, §2

E. cloacae ATCC 23355 = test: Broth microdilution MIC, ATCC strains; conditions: Enterobacter cloacae
Excerpt: as §1, §2

P. vulgaris ATCC 49132 = test: Broth microdilution MIC, ATCC strains; conditions: Proteus vulgaris
Excerpt: as §1, §2

S. simulans ATCC 27848 = test: Broth microdilution MIC, ATCC strains; conditions: Staphylococcus simulans, ATCC27848, read-out: MIC (growth inhibition, microdilution method)
Excerpt: as §1, §2

K. pneumoniae ATCC 13883 = test: Broth microdilution MIC, ATCC strains; conditions: Klebsiella pneumoniae
Excerpt: as §1, §2

S. warneri ATCC 27836 = test: Broth microdilution MIC, ATCC strains; conditions: Staphylococcus warneri, ATCC27836; S. warneri ATCC 27836; read-out: MIC (growth inhibition, microdilution method)
Excerpt: as §1, §2

A. anitratus ATCC 19606 = test: Broth microdilution MIC, ATCC strains; conditions: Acinetobacter calcoaceticus, ATCC19606; A. anitratus ATCC 19606; read-out: MIC (growth inhibition, microdilution method)
Excerpt: as §1, §2

[2] = tested on: S. epidermidis ATCC 14990; test: Broth microdilution MIC, ATCC strains; conditions: Staphylococcus epidermidis
Excerpt: as §1, §2

B. cepacia ATCC 25416 = test: Broth microdilution MIC, ATCC strains; conditions: Burkholderia cepacia, ATCC25416; B. cepacia ATCC 25416; read-out: MIC (growth inhibition, microdilution method)
Excerpt: as §1, §2

[3] = tested on: Ps. aeruginosa ATCC 27853; test: Broth microdilution MIC, ATCC strains; conditions: Pseudomonas aeruginosa
Excerpt: as §1, §2

E. coli ATCC 25922 = test: Broth microdilution MIC, ATCC strains; conditions: Escherichia coli
Excerpt: as §1, §2

Pr. stuartii ATCC 33672 = test: Broth microdilution MIC, ATCC strains; conditions: Providencia stuartii, ATCC33672; Pr. stuartii ATCC 33672; read-out: MIC (growth inhibition, microdilution method)
Excerpt: as §1, §2

P. mirabilis ATCC 29245 = test: Broth microdilution MIC, ATCC strains; conditions: Proteus mirabilis
Excerpt: as §1, §2

E. aerogenes ATCC 13048 = test: Broth microdilution MIC, ATCC strains; conditions: Klebsiella aerogenes
Excerpt: as §1, §2

MRSA ATCC 33591 = test: Broth microdilution MIC, ATCC strains; conditions: Staphylococcus aureus, read-out: MIC (growth inhibition, microdilution method)
Excerpt: as §1, §2

[4] = tested on: S. saprophyticus ATCC 15305; test: Broth microdilution MIC, ATCC strains; conditions: Staphylococcus saprophyticus
Excerpt: as §1, §2

S. aureus ATCC 29213 = test: Broth microdilution MIC, ATCC strains; conditions: Staphylococcus aureus
Excerpt: as §1, §2

E. faecalis ATCC 29212 = test: Broth microdilution MIC, ATCC strains; conditions: Enterococcus faecalis, read-out: MIC (growth inhibition, microdilution method)
Excerpt: as §1, §2

[5] = ATCC27853, Ps. aeruginosa ATCC 27853, read-out: MIC (growth inhibition, microdilution method)
[6] = ATCC25922, E. coli ATCC 25922, read-out: MIC (growth inhibition, microdilution method)
[7] = ATCC29212, E. faecalis ATCC 29212
[8] = ATCC29212, E. faecalis, ATCC number not given
[9] = ATCC8100, S. marcescens ATCC 8100, read-out: MIC (growth inhibition, microdilution method)
[10] = ATCC49131, K. oxytoca ATCC 49131, read-out: MIC (growth inhibition, microdilution method)
[11] = ATCC23355, E. cloacae ATCC 23355, read-out: MIC (growth inhibition, microdilution method)
[12] = ATCC49132, P. vulgaris ATCC 49132, read-out: MIC (growth inhibition, microdilution method)
[13] = ATCC13883, K. pneumoniae ATCC 13883, read-out: MIC (growth inhibition, microdilution method)
[14] = ATCC14990, S. epidermidis ATCC 14990, read-out: MIC (growth inhibition, microdilution method)
[15] = ATCC29245, P. mirabilis ATCC 29245, read-out: MIC (growth inhibition, microdilution method)
[16] = ATCC13048, E. aerogenes ATCC 13048, read-out: MIC (growth inhibition, microdilution method)
[17] = ATCC15305, S. saprophyticus ATCC 15305, read-out: MIC (growth inhibition, microdilution method)
[18] = ATCC29213, S. aureus ATCC 29213, read-out: MIC (growth inhibition, microdilution method)

In the case of `O=C(O)c1cc(-c2nnn[nH]2)c(C(=O)O)s1` [DNM-111, 3-(1H-tetrazol-5-yl)thiophene-2,5-dicarboxylic acid], the MIC (P. rettgeri CAP) was 128 µg/mL (≈ 533 µM), the MIC (S. marcescens ATCC 8100; ATCC8100, read-out: MIC (growth inhibition, microdilution method)) was 128 µg/mL (≈ 533 µM) and the MIC (K. oxytoca ATCC 49131; ATCC49131, read-out: MIC (growth inhibition, microdilution method)) was 128 µg/mL (≈ 533 µM). It also gave an MIC [1] of 64 µg/mL (≈ 266 µM), an MIC (E. faecium ATCC 35667) of 8 µg/mL (≈ 33.3 µM) and an MIC (E. cloacae ATCC 23355; ATCC23355, read-out: MIC (growth inhibition, microdilution method)) of 128 µg/mL (≈ 533 µM). For the same molecule, the MIC (P. vulgaris ATCC 49132; ATCC49132, read-out: MIC (growth inhibition, microdilution method)) was 128 µg/mL (≈ 533 µM), the MIC (S. simulans ATCC 27848) was 256 µg/mL (≈ 1070 µM) and the MIC (K. pneumoniae ATCC 13883; ATCC13883, read-out: MIC (growth inhibition, microdilution method)) was 128 µg/mL (≈ 533 µM). It also gave an MIC (S. warneri ATCC 27836) of 256 µg/mL (≈ 1070 µM), an MIC (A. anitratus ATCC 19606) of 64 µg/mL (≈ 266 µM) and an MIC ([2]; ATCC14990, read-out: MIC (growth inhibition, microdilution method)) of 128 µg/mL (≈ 533 µM). It also gave an MIC (B. cepacia ATCC 25416) of 64 µg/mL (≈ 266 µM), an MIC ([3]; ATCC27853, read-out: MIC (growth inhibition, microdilution method), Ps. aeruginosa ATCC 27853) of 128 µg/mL (≈ 533 µM) and an MIC [3, 5] of 64 µg/mL (≈ 266 µM). It also gave an MIC (E. coli ATCC 25922; [6]) of 64 µg/mL (≈ 266 µM), an MIC (E. coli ATCC 25922; ATCC25922, read-out: MIC (growth inhibition, microdilution method)) of 128 µg/mL (≈ 533 µM) and an MIC (Pr. stuartii ATCC 33672) of 256 µg/mL (≈ 1070 µM). For the same molecule, the MIC (P. mirabilis ATCC 29245; ATCC29245, read-out: MIC (growth inhibition, microdilution method)) was 128 µg/mL (≈ 533 µM), the MIC (E. aerogenes ATCC 13048; ATCC13048, read-out: MIC (growth inhibition, microdilution method)) was 128 µg/mL (≈ 533 µM) and the MIC (MRSA ATCC 33591) was 128 µg/mL (≈ 533 µM). It also gave an MIC ([4]; ATCC15305, read-out: MIC (growth inhibition, microdilution method)) of 128 µg/mL (≈ 533 µM), an MIC (S. aureus ATCC 29213; ATCC29213, read-out: MIC (growth inhibition, microdilution method)) of 128 µg/mL (≈ 533 µM) and an MIC (E. faecalis ATCC 29212; [7]) of 8 µg/mL (≈ 33.3 µM). For the same molecule, the MIC (E. faecalis ATCC 29212; [8]) was 8 µg/mL (≈ 33.3 µM).

For `COC(=O)c1sc(-c2ccc(F)cc2)cc1-c1nnnn1C` [DNM-145, 5-(4-Fluoro-phenyl)-3-(1-methyl-1H-tetrazol-5-yl)-thiophene-2-carboxylic acid methyl ester], the MIC (P. rettgeri CAP; P. rettgeri (CAP in Table 1)) was over 4 µg/mL, the MIC (S. marcescens ATCC 8100; [9]) was over 4 µg/mL and the MIC (K. oxytoca ATCC 49131; [10]) was over 4 µg/mL. It also gave an MIC [1] of over 4 µg/mL, an MIC (E. faecium ATCC 35667) of over 4 µg/mL and an MIC (E. cloacae ATCC 23355; [11]) of over 4 µg/mL. The MIC (P. vulgaris ATCC 49132; [12]) was over 4 µg/mL, the MIC (S. simulans ATCC 27848) was over 4 µg/mL and the MIC (K. pneumoniae ATCC 13883; [13]) was over 4 µg/mL. It also gave an MIC (S. warneri ATCC 27836) of over 4 µg/mL, an MIC (A. anitratus ATCC 19606) of over 4 µg/mL and an MIC [2, 14] of over 4 µg/mL. For the same molecule, the MIC (B. cepacia ATCC 25416) was over 4 µg/mL, the MIC [3, 5] was over 4 µg/mL and the MIC (E. coli ATCC 25922; [6]) was over 4 µg/mL. The MIC (Pr. stuartii ATCC 33672) was over 4 µg/mL, the MIC (P. mirabilis ATCC 29245; [15]) was over 4 µg/mL and the MIC (E. aerogenes ATCC 13048; [16]) was over 4 µg/mL. It also gave an MIC (MRSA ATCC 33591; MRSA ATCC 33591) of over 4 µg/mL, an MIC [4, 17] of over 4 µg/mL and an MIC (S. aureus ATCC 29213; [18]) of over 4 µg/mL. The MIC (E. faecalis ATCC 29212; [7]) was over 4 µg/mL and the MIC (E. faecalis ATCC 29212; [8]) was over 4 µg/mL.

In the case of `Cn1nnc(-c2cc(-c3ccc(F)cc3)sc2-c2ccc(F)cc2)n1` [DNM-132, 5-(2,5-bis(4-fluorophenyl)thiophen-3-yl)-2-methyl-2H-tetrazole], the MIC (P. rettgeri CAP; P. rettgeri (CAP in Table 1)) was over 16 µg/mL, the MIC (S. marcescens ATCC 8100; [9]) was over 16 µg/mL and the MIC (K. oxytoca ATCC 49131; [10]) was over 16 µg/mL. It also gave an MIC [1] of over 16 µg/mL, an MIC (E. faecium ATCC 35667) of over 16 µg/mL and an MIC (E. cloacae ATCC 23355; [11]) of over 16 µg/mL. It also gave an MIC (P. vulgaris ATCC 49132; [12]) of over 16 µg/mL, an MIC (S. simulans ATCC 27848) of over 16 µg/mL and an MIC (K. pneumoniae ATCC 13883; [13]) of over 16 µg/mL. It also gave an MIC (S. warneri ATCC 27836) of over 16 µg/mL, an MIC (A. anitratus ATCC 19606) of over 16 µg/mL and an MIC [2, 14] of over 16 µg/mL. For the same molecule, the MIC (B. cepacia ATCC 25416) was over 16 µg/mL, the MIC [3, 5] was over 16 µg/mL and the MIC (E. coli ATCC 25922; [6]) was over 16 µg/mL. For the same molecule, the MIC (Pr. stuartii ATCC 33672) was over 16 µg/mL, the MIC (P. mirabilis ATCC 29245; [15]) was over 16 µg/mL and the MIC (E. aerogenes ATCC 13048; [16]) was over 16 µg/mL. It also gave an MIC (MRSA ATCC 33591; MRSA ATCC 33591) of over 16 µg/mL, an MIC [4, 17] of over 16 µg/mL and an MIC (S. aureus ATCC 29213; [18]) of over 16 µg/mL. For the same molecule, the MIC (E. faecalis ATCC 29212; [7]) was over 16 µg/mL and the MIC (E. faecalis ATCC 29212; [8]) was over 16 µg/mL.
